The record followed here is patent publication US7473688B2, “Indolobenzazepine HCV NS5B inhibitors” (Bristol-Myers Squibb Company, priority 2005, dated 2009).

pEC50, pIC50: −log10 of the molar value.

Assay [1] has as its system HCV replicon. The experiment in a line: HCV replicon FRET assay. It is filed as cell-based. The settings on record: Hepatitis C virus, Table 1; FRET assay; read-out: EC50*. In short, it runs like this:
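HCV replicon cells, with or without Renilla luciferase reporter, incubated with titrated compounds at 37 °C; Alamar blue read for cytotoxicity. NS3 protease activity read from lysates with 20 μM EDANS/DABCYL FRET peptide (340/490 nm, kinetic), or by Dual-Glo luciferase. Background from highest protease-inhibitor wells; EC50 = 50% signal reduction.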
A general note: Replicon systems follow genome replication, usually without infectious particles.

The target of assay [2] is T1, HCV NS5B (Hepatitis C virus genotype 1b, UniProt Q9WMX2).
T1 construct: The protein was expressed with an 18 amino acid C-terminal truncation to enhance the solubility; made in house; host or cells: E. coli BL21 (DE3), pET21a
T1 sequence (Q9WMX2 2420-2992): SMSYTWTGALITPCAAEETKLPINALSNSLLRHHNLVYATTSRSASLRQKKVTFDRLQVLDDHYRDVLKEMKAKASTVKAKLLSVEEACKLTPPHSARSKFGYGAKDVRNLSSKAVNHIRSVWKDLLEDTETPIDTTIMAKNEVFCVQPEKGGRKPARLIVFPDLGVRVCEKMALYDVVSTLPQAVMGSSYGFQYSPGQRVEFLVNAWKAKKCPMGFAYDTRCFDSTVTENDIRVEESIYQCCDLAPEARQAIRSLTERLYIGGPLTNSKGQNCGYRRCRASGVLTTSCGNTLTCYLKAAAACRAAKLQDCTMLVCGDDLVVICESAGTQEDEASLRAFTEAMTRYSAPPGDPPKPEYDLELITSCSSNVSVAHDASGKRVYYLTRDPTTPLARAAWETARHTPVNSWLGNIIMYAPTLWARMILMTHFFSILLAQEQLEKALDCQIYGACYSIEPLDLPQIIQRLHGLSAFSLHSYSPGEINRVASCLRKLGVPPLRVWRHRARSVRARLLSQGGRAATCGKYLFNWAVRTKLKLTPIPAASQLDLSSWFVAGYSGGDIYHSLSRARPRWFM
Description: HCV NS5B RdRp enzyme assay (preincubation protocol). Format: biochemical. As to conditions: Table 1, read-out: IC50*. In a few lines: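 Preincubation format: enzyme (14 nM, genotype 1b, 18-residue C-terminal truncation) meets diluted compound first; reaction started with bead-bound biotinylated dT12 primer, polyA template 0.2 nM and 0.29 μM 3H-UTP. Run 4 h, 30 °C in Hepes pH 7.5; scintillation proximity signal; IC50 fitted from seven inhibitor levels.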

By pEC50 is commonly meant −log10 of the EC50, conventionally taken in molar units. One may read the pIC50 as −log10 of the IC50, conventionally taken in molar units. For the compound `CC(C)(C)OC(=O)N1CCN(C(=O)C2=Cc3ccccc3-c3c(C4CCCCC4)c4ccc(C(=O)O)cc4n3C2)CC1`, in assay [1], the pEC50 was 6.00 to 7.15. Further, in assay [2], the pIC50 is 6.00 to 8.00.

Consider `Cc1ccc(S(=O)(=O)N2CCN(C(=O)C3=Cc4ccccc4-c4c(C5CCCCC5)c5ccc(C(=O)NS(=O)(=O)N(C)C)cc5n4C3)CC2)cc1`, for which the pEC50 in assay [1] was 6.00 to 7.15. In addition, the pIC50 in assay [2] was 6.00 to 8.00.

For `CC1CN(C(=O)OC(C)(C)C)CCN1C(=O)C1=Cc2ccccc2-c2c(C3CCCCC3)c3ccc(C(=O)NS(=O)(=O)N(C)C)cc3n2C1` (centres unmarked), the pEC50 in assay [1] was 6.00 to 7.15. For the same compound, the negative logarithm of the IC50 (pIC50) in assay [2] is 6.00 to 8.00.

As to `COc1ccc(S(=O)(=O)N2CCN(C(=O)C3=Cc4ccccc4-c4c(C5CCCCC5)c5ccc(C(=O)NS(=O)(=O)N(C)C)cc5n4C3)CC2)cc1`, the pEC50 in assay [1] is 6.00 to 7.15. Besides, in assay [2], the negative-log IC50 (pIC50) was 6.00 to 8.00.

On to `CCOC(=O)CN1CCN(C(=O)C2=Cc3ccccc3-c3c(C4CCCCC4)c4ccc(C(=O)NS(=O)(=O)N(C)C)cc4n3C2)CC1`, for which the negative-log EC50 (pEC50) in assay [1] was 6.00 to 7.15. Further, in assay [2], the pIC50 is 6.00 to 8.00.

Regarding `CN(C)S(=O)(=O)NC(=O)c1ccc2c(C3CCCCC3)c3n(c2c1)CC(C(=O)N1CCN(CC(=O)N2CCOCC2)CC1)=Cc1ccccc1-3`, the negative logarithm of the EC50 (pEC50) in assay [1] was 6.00 to 7.15. For the same compound, the negative-log IC50 (pIC50) in assay [2] is 6.00 to 8.00.

In the case of `CN(C)S(=O)(=O)NC(=O)c1ccc2c(C3CCCCC3)c3n(c2c1)CC(C(=O)N1CCN(C(=O)C2COc4ccccc4O2)CC1)=Cc1ccccc1-3` (centres unmarked), the pEC50 in assay [1] is 6.00 to 7.15. In assay [2], the pIC50 was 6.00 to 8.00.

For the compound `COCCN1CCN(C(=O)C2=Cc3ccccc3-c3c(C4CCCCC4)c4ccc(C(=O)NS(=O)(=O)N(C)C)cc4n3C2)CC1`, in assay [1], the pEC50 is 6.00 to 7.15. The pIC50 in assay [2] was 6.00 to 8.00.

For the compound `CCS(=O)(=O)N1CCN(C(=O)C2=Cc3ccccc3-c3c(C4CCCCC4)c4ccc(C(=O)NS(=O)(=O)N(C)C)cc4n3C2)CC1`, in assay [1], the pEC50 was 6.00 to 7.15. The pIC50 in assay [2] was 6.00 to 8.00.

Turning to `CN(C)S(=O)(=O)NC(=O)c1ccc2c(C3CCCCC3)c3n(c2c1)CC(C(=O)N1CCN2C(=O)c4ccccc4CC2C1)=Cc1ccccc1-3` (centres unmarked), the negative logarithm of the EC50 (pEC50) in assay [1] is 6.00 to 7.15. Besides, the pIC50 in assay [2] is 6.00 to 8.00.

Consider `CN(C)S(=O)(=O)NC(=O)c1ccc2c(C3CCCCC3)c3n(c2c1)CC(C(=O)N1CCN(S(=O)(=O)c2ccccc2)CC1)=Cc1ccccc1-3`, for which the pEC50 in assay [1] was 6.00 to 7.15. The pIC50 in assay [2] is 6.00 to 8.00.

Regarding `CN(C)S(=O)(=O)NC(=O)c1ccc2c(C3CCCCC3)c3n(c2c1)CC(C(=O)N1CCN(C(=O)C2CC2)CC1)=Cc1ccccc1-3`, the negative logarithm of the EC50 (pEC50) in assay [1] was 6.00 to 7.15. Moreover, the pIC50 in assay [2] was 6.00 to 8.00.

As to `COc1ccc2c(c1)C=C(C(=O)N1CCN(S(C)(=O)=O)CC1)Cn1c-2c(C2CCCCC2)c2ccc(C(=O)NS(=O)(=O)N(C)C)cc21`, the pEC50 in assay [1] is 6.00 to 7.15. The pIC50 in assay [2] was 6.00 to 8.00.

With `CN(C)S(=O)(=O)NC(=O)c1ccc2c(C3CCCCC3)c3n(c2c1)CC(C(=O)N1CC[C@H](F)C1)=Cc1ccccc1-3`, the pEC50 in assay [1] was 6.00 to 7.15. The pIC50 in assay [2] is 6.00 to 8.00.

`CN(C)S(=O)(=O)NC(=O)c1ccc2c(C3CCCCC3)c3n(c2c1)CC(C(=O)N1CCC(N2CC[C@@H](F)C2)CC1)=Cc1ccccc1-3`: the pEC50 in assay [1] was 6.00 to 7.15. Further, in assay [2], the pIC50 was 6.00 to 8.00.

As for `CN(C)S(=O)(=O)NC(=O)c1ccc2c(C3CCCCC3)c3n(c2c1)CC(C(=O)N1CCC(N2CC[C@H](F)C2)CC1)=Cc1ccccc1-3`, in assay [1], the pEC50 is 6.00 to 7.15. Besides, the pIC50 in assay [2] is 6.00 to 8.00.

Turning to `CN(C)S(=O)(=O)NC(=O)c1ccc2c(C3CCCCC3)c3n(c2c1)CC(C(=O)N1CCC(N2CCC(F)CC2)CC1)=Cc1ccccc1-3`, the pEC50 in assay [1] was 6.00 to 7.15. Further, in assay [2], the pIC50 is 6.00 to 8.00.

For the compound `CN(C)S(=O)(=O)NC(=O)c1ccc2c(C3CCCCC3)c3n(c2c1)CC(C(=O)N1CCCC(C(N)=O)C1)=Cc1ccccc1-3` (centres unmarked), in assay [1], the negative logarithm of the EC50 (pEC50) is 6.00 to 7.15. For the same compound, in assay [2], the pIC50 is 6.00 to 8.00.

Turning to `O=C(O)c1ccc2c(C3CCCCC3)c3n(c2c1)C/C(=N/O)Cc1ccccc1-3`, the pEC50 in assay [1] is 5.00 to 6.00. Also, in assay [2], the pIC50 is 6.00 to 8.00.
